# How the values were obtained:
# [1] = tested on: B6-Mice expressing the human B1 receptor; experiment: Mouse model for peritonitis (thioglycollate induced, peroxidase activity in lavage); format: in vivo; details: p.o. 30, 100 mg/kg, lavage 24 h after induction, significantly, FIG. 7
# Experimental: 6. Mouse Model for Peritonitis
# Black 6 (B6)-Mice expressing the human B1 receptor, lacking the murine B1 receptors which were specifically generated (B6-hBDKRB1 <tm1Arte>/N) and employed for a thioglycollate induced peritonitis model to test for effects of Bradykinin B1 receptor antagonism on peritoneal inflammation and related leukocyte trafficking which reflects the mode of actions underlying endometriosis.
# Animals were treated p.o. with Compound Example 3 (doses: 30 mg/kg, 100 mg/kg) or respective vehicle (10% DMSO+90% phosphate buffered saline (PBS) alone 1 h before i.p. application of 1 ml 4% thioglycollate medium (in sterile PBS, matured for >4 weeks). The treatment with vehicle or Compund Example 3 was repeated 3 and 24 hours after induction of peritonitis. 24 h after peritonitis induction the animals were sacrificed and a lavage of peritoneal fluid performed. The resulting lavage is analysed for peroxidase enzyme activity which is reflecting number of activated neutrophils in the peritoneal cavity by peroxidase activity assay as follows:
# Tetramethylbenzidine (TMB) dihydrochloride is used as a sensitive chromogen substrate for peroxidase. […]
# Changes in optical densities (OD) are monitored in an ELISA plate-reader at 450 nm at 25° Celsius against the mixture of all solutions without the added sample homogenate. […]
# [2] = tested on: female Sprague Daley rats; experiment: Isovolumetric bladder contraction model (rat); format: in vivo; details: single administration 1 mg/kg & 15 mg/kg, compared to vehicle
# Text: 11. Isovolumetric Bladder Contraction Model (Rat) The aim of this study was to test the efficacy of Compound Examples on bladder function, in particularly on contraction frequency/intercontraction interval and contraction magnitude/contraction amplitude. The experimental setup for performing the isovolumetric bladder measurements was adapted to a previous descripted protocol (Yoshiyama M, de Groat W C. Am J Physiol Regul Integr Comp Physiol 280: […]-[…], 2001). Strong presence and target induction of BDKRB1 in comparison to BDKRB2 has been verified by gene expression analysis in bladders removed from rats after performance of the isovolumetric bladder contraction model in contrast to bladders of naïve, untreated rats. Immunohistochemistry confirmed the presence of BDKRB1 in bladders of rats after contraction, too. […] At least five cycles of isovolumetric bladder contractions were recorded before the Compound Examples or vehicle alone (PEG400/Water (50/50(v/v))) were administered via the catheter in the Vena jugularis at different dosages. About 2 minutes after compound administration the next nine contraction cycles were recorded. The change in contraction amplitude and intercontraction interval of the recorded bladder pressure and bladder contractions was calculated by comparing the means before and after compound administration using GraphPad Prism 7 program.
compound,measurement,setting,value
"O=C(O)c1cc(NC(=O)C2(c3ccc(C(F)(F)F)cc3F)CC2)ccc1-c1cnn(C2CCC2)c1 [Example 3, 2-(1-Cyclobutyl-1H-pyrazol-4-yl)-5-[({1-[2-fluoro-4-(trifluoromethyl)phenyl]cyclopropyl}carbonyl)amino]benzoic acid]",signal specific for neutrophil influx into inflamed tissue (peroxidase activity),[1],reduced
same,intercontraction interval (ICI),[2],significant efficacy on prolonging
same,maximal pressure of bladder contractions,[2],remained unchanged

# From patent US12023319B2, “Carboxylic acid aromatic amides” (priority 2016, dated 2024)
